Biological target: T1, GABAA2 receptors (α2, β3, γ2 receptor subunits transfected into Sf9 cells) (Homo sapiens, UniProt P18507+P47869)
T1 construct: host or cells: Sf9 cells (membranes)
Assay: GABAA2 Binding Method ([3H]-Flunitrazepam displacement)
Details: [3H]-Flunitrazepam ~2 nM, α2β3γ2 Sf9 membranes, 1 hr at 4° C.
Protocol: In some embodiments, the binding test is directed to a subtype of GABAA receptors, such as GABAA1 receptors (i.e., those containing the α1 subunit), GABAA2 receptors (i.e., those containing the α2 subunit), GABAA3 receptors (i.e., those containing the α3 subunit) and GABAA5 receptors (i.e., those containing the α5 subunit).
[^3H]-Flunitrazepam (Cat #NET567): Prepare 10× stock=20 nM, [F} in assay=˜2 nM
1. […] Add 5 ul of 30 uM flumazenil to wells 12 D-E for 50% control wells.
5. Add 25 μl [^3H]-Flunitrazepam (Automation Program 6). Incubate for 1 hr at 4° C.
6. Collect membranes on a cell harvester onto GF/B filter plates (pre-wet with dH2O and wash 5×400 μl/well, with cold assay buffer. (First 3 washes are considered hot; last two are cold.)
Data is analyzed by calculating percent of control, IC50, and Ki in an XLfit template. The following formula is used in the templates: […]

T1 sequence (P47869 29-451): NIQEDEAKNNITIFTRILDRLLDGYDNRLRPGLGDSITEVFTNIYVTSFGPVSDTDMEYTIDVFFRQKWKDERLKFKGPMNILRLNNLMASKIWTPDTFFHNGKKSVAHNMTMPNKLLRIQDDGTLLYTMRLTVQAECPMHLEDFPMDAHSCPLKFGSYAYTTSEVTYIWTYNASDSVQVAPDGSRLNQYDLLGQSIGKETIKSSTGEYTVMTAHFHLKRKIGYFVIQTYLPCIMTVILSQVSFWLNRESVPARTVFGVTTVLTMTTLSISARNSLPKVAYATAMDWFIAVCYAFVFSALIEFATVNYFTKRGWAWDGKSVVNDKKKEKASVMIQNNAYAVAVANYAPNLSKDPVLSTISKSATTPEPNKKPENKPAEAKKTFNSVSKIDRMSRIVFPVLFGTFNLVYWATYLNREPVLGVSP
T1 sequence (P28472 26-473 partner): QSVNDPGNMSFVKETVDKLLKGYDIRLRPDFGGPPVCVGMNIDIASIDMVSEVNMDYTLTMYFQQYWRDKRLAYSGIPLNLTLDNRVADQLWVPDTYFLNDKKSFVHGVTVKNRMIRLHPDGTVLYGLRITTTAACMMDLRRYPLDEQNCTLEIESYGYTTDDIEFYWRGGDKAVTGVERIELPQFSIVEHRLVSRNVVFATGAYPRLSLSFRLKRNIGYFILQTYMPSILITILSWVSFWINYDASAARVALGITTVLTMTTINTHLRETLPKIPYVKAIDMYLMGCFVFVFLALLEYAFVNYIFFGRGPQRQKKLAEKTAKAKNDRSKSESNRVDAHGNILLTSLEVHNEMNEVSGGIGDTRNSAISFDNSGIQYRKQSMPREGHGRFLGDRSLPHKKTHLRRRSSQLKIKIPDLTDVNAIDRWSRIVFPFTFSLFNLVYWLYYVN
T1 sequence (P18507 40-475): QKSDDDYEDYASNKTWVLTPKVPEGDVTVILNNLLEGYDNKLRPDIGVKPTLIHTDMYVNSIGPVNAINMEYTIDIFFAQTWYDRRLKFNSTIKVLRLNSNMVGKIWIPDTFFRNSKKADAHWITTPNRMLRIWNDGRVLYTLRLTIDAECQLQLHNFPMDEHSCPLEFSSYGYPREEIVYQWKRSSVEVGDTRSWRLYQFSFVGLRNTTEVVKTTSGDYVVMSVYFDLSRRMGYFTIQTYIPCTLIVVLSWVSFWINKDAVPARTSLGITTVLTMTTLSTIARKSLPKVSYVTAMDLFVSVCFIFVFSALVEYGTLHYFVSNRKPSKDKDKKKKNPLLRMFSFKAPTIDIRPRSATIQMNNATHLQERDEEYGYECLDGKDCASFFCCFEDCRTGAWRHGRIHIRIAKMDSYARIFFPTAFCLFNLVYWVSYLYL

| SMILES | Ki [nM] |
| --- | --- |
| CCCN1Cc2nc3c(-c4c(C#N)cccc4OC)cccc3c(N)c2C1=O [2-(9-amino-1-oxo-2-propyl-2,3-dihydro-1H-pyrrolo[3,4-b]quinolin-5-yl)-3-methoxybenzonitrile] | 75.7 |
| CN1Cc2nc3c(-c4ccccc4C#N)cccc3c(N)c2C1=O [2-(9-amino-2-methyl-1-oxo-2,3-dihydro-1H-pyrrolo[3,4-b]quinolin-5-yl)benzonitrile] | 64.3 |
| CCCN1Cc2nc3c(-c4ccc(C#N)cc4)cccc3c(N)c2C1=O [4-(9-amino-1-oxo-2-propyl-2,3-dihydro-1H-pyrrolo[3,4-b]quinolin-5-yl)benzonitrile] | 52.1 |
| CCCN1Cc2nc3c(-c4ccc(F)c(C#N)c4)cccc3c(N)c2C1=O [5-(9-amino-1-oxo-2-propyl-2,3-dihydro-1H-pyrrolo[3,4-b]quinolin-5-yl)-2-fluorobenzonitrile] | 74.5 |
| CCC(C)N1Cc2nc3c(-c4c(F)cccc4OC)cccc3c(N)c2C1=O (stereo not shown) [9-amino-2-(2-butyl)-5-(2-fluoro-6-methoxyphenyl)-2,3-dihydro-1H-pyrrolo[3,4-b]quinolin-1-one] | 46.2 |
| COc1cccc(F)c1-c1cccc2c(N)c3c(nc12)CN(Cc1cccc(Cl)c1)C3=O [9-amino-2-(3-chlorobenzyl)-5-(2-fluoro-6-methoxyphenyl)-2,3-dihydro-1H-pyrrolo[3,4-b]quinolin-1-one] | 27.8 |
| COc1ccc(CN2Cc3nc4c(-c5cnn(C)c5)cccc4c(N)c3C2=O)cc1 [9-amino-2-(4-methoxybenzyl)-5-(1-methyl-1H-pyrazol-4-yl)-2,3-dihydro-1H-pyrrolo[3,4-b]quinolin-1-one] | 70.6 |
| COc1ccc(CN2Cc3nc4c(-c5ccccc5C(F)(F)F)cccc4c(N)c3C2=O)cc1 [9-amino-2-(4-methoxybenzyl)-5-(2-(trifluoromethyl)phenyl)-2,3-dihydro-1H-pyrrolo[3,4-b]quinolin-1-one] | 34.1 |
| COc1ccc(CN2Cc3nc4c(-c5ccc(C)nc5)cccc4c(N)c3C2=O)cc1 [9-amino-2-(4-methoxybenzyl)-5-(6-methylpyridin-3-yl)-2,3-dihydro-1H-pyrrolo[3,4-b]quinolin-1-one] | 60.5 |
| CCCCN1Cc2nc3c(-c4ccc(C)nc4)cccc3c(N)c2C1=O [9-amino-2-butyl-5-(6-methylpyridin-3-yl)-2,3-dihydro-1H-pyrrolo[3,4-b]quinolin-1-one] | 90.5 |
| Nc1c2c(nc3c(-c4cc(F)cc(F)c4)cccc13)CN(C1CCC1)C2=O [9-amino-2-cyclobutyl-5-(3,5-difluorophenyl)-2,3-dihydro-1H-pyrrolo[3,4-b]quinolin-1-one] | 39.3 |
| COc1ccc(-c2cccc3c(N)c4c(nc23)CN(C2CC2)C4=O)c(OC)c1 [9-amino-2-cyclopropyl-5-(2,4-dimethoxyphenyl)-2,3-dihydro-1H-pyrrolo[3,4-b]quinolin-1-one] | 58.4 |
| COc1ncc(-c2cccc3c(N)c4c(nc23)CN(C2CC2)C4=O)c(OC)n1 [9-amino-2-cyclopropyl-5-(2,4-dimethoxypyrimidin-5-yl)-2,3-dihydro-1H-pyrrolo[3,4-b]quinolin-1-one] | 78.2 |
| COc1cc(F)c(-c2cccc3c(N)c4c(nc23)CN(C2CC2)C4=O)cc1F [9-amino-2-cyclopropyl-5-(2,5-difluoro-4-methoxyphenyl)-2,3-dihydro-1H-pyrrolo[3,4-b]quinolin-1-one] | 36.8 |
| COc1ccc(OC)c(-c2c(SC)ccc3c(N)c4c(nc23)CN(C2CC2)C4=O)c1 [9-amino-2-cyclopropyl-5-(2,5-dimethoxyphenyl)-6-(methylthio)-2,3-dihydro-1H-pyrrolo[3,4-b]quinolin-1-one] | 36.7 |
| COc1ccccc1-c1cccc2c(N)c3c(nc12)CN(C1CC1)C3=O [9-amino-2-cyclopropyl-5-(2-methoxyphenyl)-2,3-dihydro-1H-pyrrolo[3,4-b]quinolin-1-one] | 54.1 |
| COc1cc(F)ccc1-c1cccc2c(N)c3c(nc12)CN(C1CC1)C3=O [9-amino-2-cyclopropyl-5-(4-fluoro-2-methoxyphenyl)-2,3-dihydro-1H-pyrrolo[3,4-b]quinolin-1-one] | 83.1 |
| COc1ccc(F)cc1-c1cccc2c(N)c3c(nc12)CN(C1CC1)C3=O [9-amino-2-cyclopropyl-5-(5-fluoro-2-methoxyphenyl)-2,3-dihydro-1H-pyrrolo[3,4-b]quinolin-1-one] | 73.4 |
| Nc1c2c(nc3c(-c4cccnc4)cccc13)CN(C1CC1)C2=O [9-amino-2-cyclopropyl-5-(pyridin-3-yl)-2,3-dihydro-1H-pyrrolo[3,4-b]quinolin-1-one] | 64.7 |
| CCN1Cc2nc3c(-c4cc(F)cc(OC)c4)cccc3c(N)c2C1=O [9-amino-2-ethyl-5-(3-fluoro-5-methoxyphenyl)-2,3-dihydro-1H-pyrrolo[3,4-b]quinolin-1-one] | 34.3 |
| CCN1Cc2nc3c(-c4ccc(C)nc4)cccc3c(N)c2C1=O [9-amino-2-ethyl-5-(6-methylpyridin-3-yl)-2,3-dihydro-1H-pyrrolo[3,4-b]quinolin-1-one] | 77.6 |
| CCN1Cc2nc3c(-c4cccc(OC)c4F)c(F)ccc3c(N)c2C1=O [9-amino-2-ethyl-6-fluoro-5-(2-fluoro-3-methoxyphenyl)-2,3-dihydro-1H-pyrrolo[3,4-b]quinolin-1-one] | 5.29 |
| Cc1ccncc1-c1cccc2c(N)c3c(nc12)CN(C)C3=O [9-amino-2-methyl-5-(4-methylpyridin-3-yl)-2,3-dihydro-1H-pyrrolo[3,4-b]quinolin-1-one] | 64.9 |
| CCCN1Cc2nc3c(-c4cnn(C)c4)cccc3c(N)c2C1=O [9-amino-5-(1-methyl-1H-pyrazol-4-yl)-2-propyl-2,3-dihydro-1H-pyrrolo[3,4-b]quinolin-1-one] | 99.7 |
| COc1ccc(CN2Cc3nc4c(-c5cccc(F)c5F)cccc4c(N)c3C2=O)cc1 [9-amino-5-(2,3-difluorophenyl)-2-(4-methoxybenzyl)-2,3-dihydro-1H-pyrrolo[3,4-b]quinolin-1-one] | 98.2 |
| CCN1Cc2nc3c(-c4cccc(OC)c4OC)cccc3c(N)c2C1=O [9-amino-5-(2,3-dimethoxyphenyl)-2-ethyl-2,3-dihydro-1H-pyrrolo[3,4-b]quinolin-1-one] | 81.9 |
| CCN1Cc2nc3c(-c4ccc(OC)cc4OC)cccc3c(N)c2C1=O [9-amino-5-(2,4-dimethoxyphenyl)-2-ethyl-2,3-dihydro-1H-pyrrolo[3,4-b]quinolin-1-one] | 99.1 |

Other lines, results leading:

| Ki [nM] | SMILES |
| --- | --- |
| 79 | COc1ccc(-c2cccc3c(N)c4c(nc23)CN(C)C4=O)c(OC)c1 [9-amino-5-(2,4-dimethoxyphenyl)-2-methyl-2,3-dihydro-1H-pyrrolo[3,4-b]quinolin-1-one] |
| 70.2 | COc1ccc(CN2Cc3nc4c(-c5cc(OC)ccc5OC)cccc4c(N)c3C2=O)cc1 [9-amino-5-(2,5-dimethoxyphenyl)-2-(4-methoxybenzyl)-2,3-dihydro-1H-pyrrolo[3,4-b]quinolin-1-one] |
| 21.6 | CCCN1Cc2nc3c(-c4ccc(Cl)nc4Cl)cccc3c(N)c2C1=O [9-amino-5-(2,6-dichloropyridin-3-yl)-2-propyl-2,3-dihydro-1H-pyrrolo[3,4-b]quinolin-1-one] |
| 82.5 | CCN1Cc2nc3c(-c4c(OC)cccc4OC)cccc3c(N)c2C1=O [9-amino-5-(2,6-dimethoxyphenyl)-2-ethyl-2,3-dihydro-1H-pyrrolo[3,4-b]quinolin-1-one] |
| 77.8 | COc1ccc(-c2cccc3c(N)c4c(nc23)CN(C)C4=O)c(F)c1 [9-amino-5-(2-fluoro-4-methoxyphenyl)-2-methyl-2,3-dihydro-1H-pyrrolo[3,4-b]quinolin-1-one] |
| 55.8 | COc1ccc(F)c(-c2cccc3c(N)c4c(nc23)CN(C)C4=O)c1 [9-amino-5-(2-fluoro-5-methoxyphenyl)-2-methyl-2,3-dihydro-1H-pyrrolo[3,4-b]quinolin-1-one] |
| 51.1 | CCCN1Cc2nc3c(-c4cc(-c5ccncc5)ccc4OC)cccc3c(N)c2C1=O [9-amino-5-(2-methoxy-5-(pyridin-4-yl)phenyl)-2-propyl-2,3-dihydro-1H-pyrrolo[3,4-b]quinolin-1-one] |
| 55.1 | COc1ccc(CN2Cc3nc4c(-c5cc(C)ccc5OC)cccc4c(N)c3C2=O)cc1 [9-amino-5-(2-methoxy-5-methylphenyl)-2-(4-methoxybenzyl)-2,3-dihydro-1H-pyrrolo[3,4-b]quinolin-1-one] |
| 70.2 | COc1ccc(C)cc1-c1cccc2c(N)c3c(nc12)CN(C)C3=O [9-amino-5-(2-methoxy-5-methylphenyl)-2-methyl-2,3-dihydro-1H-pyrrolo[3,4-b]quinolin-1-one] |
| 75.8 | CCCN1Cc2nc3c(-c4cnc(OC)nc4)cccc3c(N)c2C1=O [9-amino-5-(2-methoxypyrimidin-5-yl)-2-propyl-2,3-dihydro-1H-pyrrolo[3,4-b]quinolin-1-one] |
| 88 | COc1ccc(-c2cccc3c(N)c4c(nc23)CN(C)C4=O)cc1OC [9-amino-5-(3,4-dimethoxyphenyl)-2-methyl-2,3-dihydro-1H-pyrrolo[3,4-b]quinolin-1-one] |
| 27.2 | CCN1Cc2nc3c(-c4cc(OC)cc(OC)c4)cccc3c(N)c2C1=O [9-amino-5-(3,5-dimethoxyphenyl)-2-ethyl-2,3-dihydro-1H-pyrrolo[3,4-b]quinolin-1-one] |
| 74.1 | COc1cc(OC)cc(-c2cccc3c(N)c4c(nc23)CN(C)C4=O)c1 [9-amino-5-(3,5-dimethoxyphenyl)-2-methyl-2,3-dihydro-1H-pyrrolo[3,4-b]quinolin-1-one] |
